Read-outs that look alike come from different tables or passages of the source.
Tests used:
[1] = target: T1, NPY Y2 receptor (Homo sapiens, UniProt P49146); experiment: Neuropeptide Y2 pKB assay (FLIPR, KAN-Ts cells stably expressing chimeric G proteins); type: cell-based; settings: apparent pKB, FLIPR calcium, KAN-Ts cells with chimeric G proteins; modified Cheng-Prusoff correction
T1 construct: endogenous in cells; host or cells: KAN-Ts cells (membrane preparation)
T1 sequence (P49146 1-381): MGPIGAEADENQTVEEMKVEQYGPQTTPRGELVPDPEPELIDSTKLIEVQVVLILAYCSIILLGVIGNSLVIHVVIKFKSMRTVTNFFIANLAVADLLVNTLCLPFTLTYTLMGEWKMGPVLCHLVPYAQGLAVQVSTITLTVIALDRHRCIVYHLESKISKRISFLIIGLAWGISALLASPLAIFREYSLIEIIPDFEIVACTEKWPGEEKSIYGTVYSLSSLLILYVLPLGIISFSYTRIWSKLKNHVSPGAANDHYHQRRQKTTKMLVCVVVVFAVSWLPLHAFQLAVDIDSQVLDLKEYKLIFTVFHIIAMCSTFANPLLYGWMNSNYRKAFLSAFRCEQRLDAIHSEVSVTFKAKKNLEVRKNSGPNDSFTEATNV
Protocol: The assay was performed using the fluorimetric imaging plate reader (FLIPR) format as described in Dautzenberg, F. M., Biochemical Pharmacology 2005, 69, 1493.
KAN-Ts cells stably expressing chimeric G proteins were seeded at a density of 100,000 cells into poly-d-lysine coated 384-well blackwall, clear-bottom microtiter plates (Corning, N.Y.). One day later, the medium was removed and 50 μl loading medium DMEM high glucose, without serum, supplemented with 10 mM HEPES-acid, 0.1% BSA, 5 mM probenecid and 2 μM Fluo-3AM was added. Cells were loaded for 1 h at 37° C., washed twice with 50 μl assay buffer (5 mM HEPES-acid, 140 mM NaCl, 1 mM MgCl2, 5 mM KCl, 10 mM glucose) and then 30 μl assay buffer was added. Cells were further pre-incubated at room temperature before adding agonists or agonists plus antagonists in 20 μl assay buffer and then measured on a T-channel fluorometric imaging plate reader (FLIPR, Molecular Devices, Sunnyvale, Calif.). Antagonistic potency values were converted to apparent pKB values using a modified Cheng-Prusoff correction. Apparent pKB was calculated as pKB=−log IC50/1+[conc agonist/EC50].

[2] = target: T1, NPY Y2 receptor; experiment: Neuropeptide Y2 radioligand binding assay ([125I]PYY, KAN-Ts cell membranes)
Procedure, shortened: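 Membranes from KAN-Ts cells (endogenous Y2) incubated 1 h at rt with 80 pM [125I]PYY ± compound in HEPES/NaCl binding buffer, then filtered and counted. Nonspecific binding defined with […]. IC50 from sigmoidal fits; apparent K = IC50/(1+C/KD).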

[3] = membranes of KAN-Ts cells endogenously expressing Y2 receptors, [125I]PYY 80 pM, 1 h at rt, read-out: IC50 (μM), NPY Y2 binding

| SMILES | Kb [1] [nM] | IC50 [2, 3] [µM] | IC50 [2] [µM] |
| --- | --- | --- | --- |
| CCN(CC)C(=O)C(c1ccccc1)N1CCN(c2ccc(-c3nc(C(C)C)no3)cc2C#N)CC1 (stereo not shown) [Compound 218, 2-{4-[2-Cyano-4-(3-isopropyl-[1,2,4]oxadiazol-5-yl)-phenyl]-piperazin-1-yl}-N,N-diethyl-2-phenyl-acetamide] | 12.6 | 0.011 | – |
| CCN(CC)C(=O)C(c1ccccc1)N1CCN(c2ccc(-c3noc(C(C)C)n3)cc2F)CC1 (stereo not shown) [Compound 69, N,N-Diethyl-2-{4-[2-fluoro-4-(5-isopropyl-[1,2,4]oxadiazol-3-yl)-phenyl]-piperazin-1-yl}-2-phenyl-acetamide] | 50.1 | 0.13 | – |
| CCN(CC)C(=O)C(c1ccccc1)N1CCN(c2ccc(-c3noc(C)n3)cc2F)CC1 (stereo not shown) [Compound 67, N,N-Diethyl-2-{4-[2-fluoro-4-(5-methyl-[1,2,4]oxadiazol-3-yl)-phenyl]-piperazin-1-yl}-2-phenyl-acetamide] | 200 | 0.18 | – |
| CCN(CC)C(=O)C(c1ccccc1)N1CCN(c2ccc(-c3nc(C)no3)cc2F)CC1 (stereo not shown) [Compound 119, N,N-Diethyl-2-{4-[2-fluoro-4-(3-methyl-[1,2,4]oxadiazol-5-yl)-phenyl]-piperazin-1-yl}-2-phenyl-acetamide] | 89.1 | 0.085 | – |
| CCN(CC)C(=O)C(c1ccccc1)N1CCN(c2ccc(-c3nc(C)no3)cc2Br)CC1 (stereo not shown) [Compound 203, 2-{4-[2-Bromo-4-(3-methyl-[1,2,4]oxadiazol-5-yl)-phenyl]-piperazin-1-yl}-N,N-diethyl-2-phenyl-acetamide] | 200 | 0.15 | – |
| CCN(CC)C(=O)C(c1ccccc1)N1CCN(c2ccc(-c3cccn3C(=O)OC(C)(C)C)cc2F)CC1 (stereo not shown) [Compound 187, 2-{4-[4-(Diethylcarbamoyl-phenyl-methyl)-piperazin-1-yl]-3-fluoro-phenyl}-pyrrole-1-carboxylic acid tert-butyl ester] | – | 5 | – |
| CCNC(=O)C(c1ccccc1)N1CCN(c2ccc(-c3nc(C(C)C)no3)cc2C#N)CC1 (stereo not shown) [Compound 270] | – | – | 0.062 |
| CCN(CC)C(=O)C(c1ccccc1)N1CCN(c2ccc(-c3ccccc3)cc2F)CC1 (stereo not shown) [Compound 193, N,N-Diethyl-2-[4-(3-fluoro-biphenyl-4-yl)-piperazin-1-yl]-2-phenyl-acetamide] | – | 0.42 | – |
| CCN(CC)C(=O)C(c1ccccc1)N1CCN(c2ccc(-c3noc(C(C)(C)C)n3)cc2F)CC1 (stereo not shown) [Compound 75, 2-{4-[4-(5-tert-Butyl-[1,2,4]oxadiazol-3-yl)-2-fluoro-phenyl]-piperazin-1-yl}-N,N-diethyl-2-phenyl-acetamide] | – | 0.6 | – |
| CCN(CC)C(=O)C(c1ccccc1)N1CCN(c2ccc(-c3cccnc3)cc2F)CC1 (stereo not shown) [Compound 202, N,N-Diethyl-2-[4-(2-fluoro-4-pyridin-3-yl-phenyl)-piperazin-1-yl]-2-phenyl-acetamide] | – | 1 | – |
| CC(=O)C(c1ccccc1)N1CCN(c2ccc(-c3nc(C(C)C)no3)cc2F)CC1 (stereo not shown) [Compound 198, 1-{4-[2-Fluoro-4-(3-isopropyl-[1,2,4]oxadiazol-5-yl)-phenyl]-piperazin-1-yl}-1-phenyl-propan-2-one] | – | 2.7 | – |
| CCN(CC)C(=O)C(c1ccccc1)N1CCN(c2ccc(-c3cccc(Cl)c3)cc2F)CC1 (stereo not shown) [Compound 194, 2-[4-(3′-Chloro-3-fluoro-biphenyl-4-yl)-piperazin-1-yl]-N,N-diethyl-2-phenyl-acetamide] | – | 0.88 | – |

Continued, in another order:

| Kb [1] [nM] | IC50 [2, 3] [µM] | SMILES | IC50 [2] [µM] |
| --- | --- | --- | --- |
| 23.4 | 0.023 | CCN(CC)C(=O)C(c1ccccc1)N1CCN(c2ccc(-c3nc(C)no3)cc2C#N)CC1 (stereo not shown) [Compound 217, 2-{4-[2-Cyano-4-(3-methyl-[1,2,4]oxadiazol-5-yl)-phenyl]-piperazin-1-yl}-N,N-diethyl-2-phenyl-acetamide] | – |
| 20 | 0.035 | CCN(CC)C(=O)C(c1cccc(F)c1)N1CCN(c2ccc(-c3nc(C)no3)cc2C#N)CC1 (stereo not shown) [Compound 263, 2-{4-[2-Cyano-4-(3-methyl-[1,2,4]oxadiazol-5-yl)-phenyl]-piperazin-1-yl}-N,N-diethyl-2-(3-fluoro-phenyl)-acetamide] | – |
| – | 1 | CCN(CC)C(=O)C(c1ccccc1)N1CCN(c2ccc(-c3nc(C(C)C)nn3C)cc2F)CC1 (stereo not shown) [Compound 220, N,N-Diethyl-2-{4-[2-fluoro-4-(5-isopropyl-2-methyl-2H-[1,2,4]triazol-3-yl)-phenyl]-piperazin-1-yl}-2-phenyl-acetamide] | – |
| – | 0.99 | CCN(CC)C(=O)C(c1cc(F)ccc1Br)N1CCN(c2ccc(-c3nc(C)no3)cc2F)CC1 (stereo not shown) [Compound 209, 2-(2-Bromo-5-fluoro-phenyl)-N,N-diethyl-2-{4-[2-fluoro-4-(3-methyl-[1,2,4]oxadiazol-5-yl)-phenyl]-piperazin-1-yl}-acetamide] | – |
| – | 1 | CCN(CC)C(=O)C(c1ccccc1)N1CCN(c2ccc(-c3ccccc3C)cc2F)CC1 (stereo not shown) [Compound 254, N,N-Diethyl-2-[4-(3-fluoro-2′-methyl-biphenyl-4-yl)-piperazin-1-yl]-2-phenyl-acetamide] | – |
| – | 1.1 | CCN(CC)C(=O)C(c1ccccc1)N1CCN(c2ccc(-c3nc(C)n(C)n3)cc2F)CC1 (stereo not shown) [Compound 215, 2-{4-[4-(1,5-Dimethyl-1H-[1,2,4]triazol-3-yl)-2-fluoro-phenyl]-piperazin-1-yl}-N,N-diethyl-2-phenyl-acetamide] | – |

Source: US20120015957A1, “PIPERAZINYL DERIVATIVES USEFUL AS MODULATORS OF THE NEUROPEPTIDE Y2 RECEPTOR” (priority 2007, published 2012)
